Patent US20100330028A1, “COMBINATION THERAPY FOR CHRONIC DERMAL ULCERS” (The Board of Regents THe Universityof Texas System, priority 2007, published 2010)
Blank lines part the entries; values can stand above or below the substance they belong to.

Columns and labels:
[1] = system: Human coronary artery endothelial (HCAE) cells; assay: Migration of HCAE cells through fibronectin-coated insert toward PDGF; type: cell-based; details: PDGF 10 ng/ml, 22 h
Protocol: (§1) The design of experiments to measure invasion and migration of endothelial cells toward the angiogenic factor PDGF (platelet-derived growth factor-BB) is shown in FIGS. 7A and 8A respectively. The standard assay used 5×10^4 cells added to the top of the insert in 250 μl of medium. The lower portion of the apparatus contained 750 μl of medium, plus or minus PDGF. […] Transmembrane cell invasion and migration assays were performed using BD FluoroBlok inserts coated with BD Matrigel Matrix (a biologically active basement membrane preparation) or with fibronectin (BD Bioscience, Bedford, Mass.), respectively. […] PDGF [10 ng/ml] (R&D System, Minneapolis, Minn. (PDGF) or medium alone (CTR) were added to the lower chamber of the insert plate as a chemoattractant. The cells were allowed to invade or migrate for 22 hours. Cells were labeled post invasion or post migration with Calcein AM (4 μg/ml) and the fluorescence of the cells that invaded through the BD Matrigel Matrix or migrated to the underside of the insert membrane was measured using a plate reader at 485 nm (excitation) and 530 nm (emission).

[2] = system: Human coronary artery endothelial (HCAE) cells; assay: Invasion of HCAE cells through Matrigel toward PDGF; type: cell-based; details: PDGF 10 ng/ml, 22 h
Protocol: as §1

[3] = system: Human coronary artery endothelial (HCAE) cells; assay: Invasion of HCAE cells through Matrigel toward bFGF; type: cell-based; details: bFGF 10 ng/ml, 22 h
Protocol: (§2) The design of experiments to measure invasion and migration of endothelial cells toward the angiogenic factor bFGF (basic fibroblast growth factor) is shown in FIGS. 5A and 6A, respectively. The standard assay used 5×10^4 cells added to the top of the insert in 250 μl of medium. The lower portion of the apparatus contained 750 μl of medium, plus or minus bFGF. […] Transmembrane cell invasion and migration assays were performed using BD FluoroBlok (BD Bioscience, Bedford, Mass.) inserts coated with BD Matrigel Matrix (a biologically active basement membrane preparation) or with fibronectin, respectively. […] (R&D System, Minneapolis, Minn.) (FGF) or medium alone (CTR) were added to the lower chamber of the insert plate as a chemoattractant. The cells were allowed to invade or migrate for 22 hours. Cells were labeled post invasion or post migration with Calcein AM (4 μg/ml) and the fluorescence of the cells that invaded through the BD Matrigel Matrix or migrated to the underside of the insert membrane was measured using a plate reader at 485 nm (excitation) and 530 nm (emission).

[4] = system: Human coronary artery endothelial (HCAE) cells; assay: Migration of HCAE cells through fibronectin-coated insert toward bFGF; type: cell-based; details: bFGF 10 ng/ml, 22 h
Protocol: as §2

thrombin receptor [5] = details: cited from earlier work
thrombin receptor [6] = details: cited from earlier work; remark: listed apart in the source
23C53 = assay: Binding of biotin-conjugated thrombin to complementary peptide 23C53
AC-23 = assay: Binding of biotin-conjugated thrombin to complementary peptide AC-23
AC-23, sequence (as listed by the source): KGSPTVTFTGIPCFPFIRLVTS

23C53, sequence (as listed by the source): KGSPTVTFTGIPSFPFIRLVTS

Substance: PDGF
- Effect of PDGF on endothelial cell migration compared to control (CTR) [1]: no effect
- Effect of PDGF on endothelial cell invasion compared to control medium without PDGF [2]: no effect

Substance: bFGF: angiogenic factor basic fibroblast growth factor (R&D System)
- bFGF-induced endothelial cell invasion as % of invasion with control medium (CTR) [3]: ~170%
- Increase of endothelial cell migration by bFGF compared to control medium not containing bFGF [4]: ~40%

Substance: p508-530: stimulatory thrombin polypeptide derivative containing fibronectin- and serine protease-homologous domains, residues 508 to 530 of human thrombin
- Binding to thrombin receptors (thrombin receptor [5]): bind to thrombin receptors with high-affinity
- Induction of mitogenesis / mitogenic signals (thrombin receptor [6]): substitute for DIP-alpha-thrombin as an initiator of receptor occupancy-related mitogenic signals

Substance: p519-530: intermediate thrombin peptide derivative, residues 519-530 of human thrombin (QPSVLQVVNLPI; UniProt P00734 519-530, looked up, fragment)
- Induction of mitogenesis / mitogenic signals (thrombin receptor [6]): retains the ability to mediate mitogenesis but to a much lesser degree than p508-530

- Specific binding of biotin-conjugated thrombin to 23C53 (23C53): bind specifically
- Specific binding of biotin-conjugated thrombin to AC23 (AC-23): bind specifically
Substance: thrombin
